Values joined by “and” are separate entries in the source; they are usually repeats but may differ in a detail not shown here. Equal entries are not always repeated. * marks the point of attachment. Bz = O=C(c1ccccc1)*
Legend:
Format in all cases: physicochemical
[1] = Cysteine challenge stability of ^99mTc chelator peptides; settings: N1-N2-Cys triamide thiol chelators; for % Peptide Complexed to ^99mTc Initial: 150 μg cysteine, room temperature, Initial (within 5 minutes); for % Peptide Complexed to ^99mTc 2 h / % Peptide Complexed to ^99mTc 4 h / % Peptide Complexed to ^99mTc 6 h / % Peptide Complexed to ^99mTc 8 h / % Peptide Complexed to ^99mTc 10 h / % Peptide Complexed to ^99mTc 12 h: cysteine challenge
Method: (§1) For the ^99mTc radiolabeling, a peptide as the TFA salt was dissolved in saline at 1 mg/mL and 100 μg (100 μL) was added to a ^99mTc placebo vial. The vial was reconstituted with 0.9 mL technetium ^99mTc sodium pertechnetate containing approximately 20 mCi and saline such that the final preparation volume was 1.1 mL. The vial was heated in a boiling water bath for 10 minutes and cooled at room temperature for 10 minutes.
(§2) The radiochemical purity (RCP) of the ^99mTc or ^188Re peptides was measured by gradient reversed phase HPLC using a Eurosphere-100 C18 HPLC column and 0.1% TFA mobile phases moderated with acetonitrile. Radioactive components were detected in the HPLC system using an in-line radiometric detector. Under the gradient conditions employed radiolabeled impurities (for example: ^99mTc glucoheptonate, ^99mTc edetate, and ^99mTc pertechnetate) eluted early (between 1 and 4 minutes), while the radiolabeled peptides eluted much later (between 8 and 20 minutes). In general, two isomeric radiometal complexes were observed, and the HPLC RCP was measured as the sum of the percent areas of the peaks corresponding to the two complexes. Radiochemical purity results for each of compounds are summarized in the examples that follow.
(§3) To ^99mTc radiolabelled peptide preparations described in Example 3 was added 150 μg of cysteine (approximately a 7-fold molar excess over peptide), and the preparations were stored at room temperature and monitored by HPLC for up to 12 hours. The amount of ^99mTc cysteine formed over time was noted. The initial HPLC analysis was started within 5 minutes of adding cysteine. In all cysteine challenge studies, a chelator compound containing a stabilizing sidechain was screened vs. the corresponding control chelator compound containing no sidechain. The relative amount of ^99mTc cysteine formed over time correlates inversely with the stability of the chelator (ie. less ^99mTc cysteine indicates higher chelator stability).
Several model chelator peptides were prepared with an N^1—N^2-Cys (N^1, N^2=independently any amino acid) amino acid sequence capable of complexing technetium as a triamide thiol chelator. Various stabilizing sidechains were substituted into the N^1—N^2-Cys chelator in two positions R1 and R2 as depicted in FIG. 4. The compounds were screened in the cysteine challenge experiment described in Example 4. Several experiments were conducted where 1-2 chelators were compared directly to a control chelator containing no stabilizing sidechain (compound GoC1 was also analyzed alone in a further study). Results in Table 5 represent % Peptide complexed to ^99mTc (ie. 100%−the amount of ^99mTc cysteine) vs. time.
Several model chelator peptides were prepared with an (β)Dap-N^2-Cys (N^2=any amino acid) amino acid sequence capable of complexing technetium as an amine diamide thiol chelator. This chelator is the chelator in the somatostatin peptides that were evaluated in Examples 5 and 6. Various stabilizing sidechains were substituted into the (β)Dap-N^2-Cys chelator in two positions R3 and R4 as depicted in FIG. 5. The compounds were screened in the cysteine challenge experiment described in Example 4. Several experiments were conducted where 1-2 chelators were compared directly to a control chelator containing no stabilizing sidechain. Results in Table 6 are the same as described in Example 7.
Two model chelator peptides were prepared with a ma-N^1—N^2 (Ma=mercaptoacetyl; N^1, N^2=independently any amino acid) amino acid sequence capable of complexing technetium as a triamide thiol chelator. This chelator has the thiol donor group at the N-terminus of the peptide. A stabilizing sidechain was substituted into the ma-N^1—N^2 chelator in position R5 as depicted in FIG. 6. The compounds were radiolabeled according to Example 3 with the exception that additional NaOH was added to bring the pH of the preparation up to pH 8.5. […]

[2] = Cysteine challenge stability of ^188Re chelator peptides; settings: radiolabeled with ^188Re
Method: For the ^188Re radiolabeling, a peptide as the TFA salt was dissolved in saline at 1 mg/mL and 100 μg (100 μL) was added to a ^188Re placebo vial. To the vial was added 100 μg stannous chloride dihydrate. The vial was reconstituted with 0.9 mL rhenium ^188Re sodium perrhenate containing approximately 20 mCi and saline such that the final preparation volume was 1.5 mL. The vial was heated in a boiling water bath for 15 minutes and cooled at room temperature for 10 minutes. Finally 1 mL of an antioxidant stabilizer solution containing 10 mg gentisic acid sodium salt monohydrate and 20 mg ascorbic acid was added to the vial.
as §2, §3
Some of the N^1—N^2-Cys (N^1, N^2=independently any amino acid) model chelator peptides described in Example 7 were radiolabeled with ^188Re and screened in the cysteine challenge experiment described in Example 4. Two chelators (See FIG. 4) were compared directly to the control chelator containing no stabilizing sidechain. In these studies, the products were monitored for 6 hours. Results in Table 8 represent % Peptide complexed to ^188Re (ie. 100%−the amount of ^188Re cysteine) vs. time.

[3] = HPLC radiochemical purity (RCP) stability of ^99mTc radiolabeled somatostatin peptides
Method: Lyophilized kit “placebo” vials were prepared containing 5 mg sodium glucoheptonate dihydrate, 100 μg edetate disodium dihydrate, and either 50 μg (^99mTc placebo) or 1000 μg (^188Re placebo) stannous chloride dihydrate. The formulations were adjusted to pH 7.4 prior to lyophilization.
as §1, §2
Somatostatin peptides were prepared with varying sidechains in the chelator portion of the compounds as described in FIG. 2. The sidechains varied in length from 0 to 5 atoms. These peptides have an amine-diamide-thiol chelator of the (β)Dap-N^2-Cys type (N^2=any amino acid). Each of the peptides were radiolabeled and monitored for HPLC stability out to 9 hours according the procedures described in Example 3.
Analogs to a commercial lung cancer imaging radiopharmaceutical (NeoTect®) were prepared to investigate the influence of the stabilizing sidechain (D)-CH2CH2CH2NH2 as described in FIG. 3. These peptides have an amine-diamide-thiol chelator of the (β)Dap-N^2-Cys type (N^2=any amino acid). The compound with N^2=Lys (sidechain=(L)-CH2CH2—CH2CH2NH2) is the peptide in the commercial radiopharmaceutical product. Each of the peptides were radiolabeled and monitored for HPLC stability out to 18 hours according to the procedures described in Example 3.

[4] = ^99mTc labeled somatostatin peptide, (β)Dap-N2-Cys chelator, sum of percent areas of the two complex peaks
[5] = ^99mTc labeled somatostatin peptide, (β)Dap-N2-Cys chelator

## Bz-Gly-Gly-Glu-Cys-Ala.amide (Bz-GGECA-NH2; SMILES C[C@H](NC(=O)[C@H](CS)NC(=O)[C@H](CCC(=O)O)NC(=O)CNC(=O)CNC(=O)c1ccccc1)C(N)=O)
[1]
  % Peptide Complexed to ^99mTc Initial: 100%
  % Peptide Complexed to ^99mTc 2 h: 88.9%
  % Peptide Complexed to ^99mTc 4 h: 84.5%
  % Peptide Complexed to ^99mTc 6 h: 80.3%
  % Peptide Complexed to ^99mTc 8 h: 75.7%
  % Peptide Complexed to ^99mTc 10 h: 74.1%
  % Peptide Complexed to ^99mTc 12 h: 69.0%
[2]; 1.5 h
  % Peptide Complexed to ^188Re: 94.0%
[2]; 3 h
  % Peptide Complexed to ^188Re: 90.5%
[2]; 4.5 h
  % Peptide Complexed to ^188Re: 89.7%
[2]; 6 h
  % Peptide Complexed to ^188Re: 90.2%
[2]; N1-N2-Cys chelators, Initial
  % Peptide Complexed to ^188Re: 98.0%

## Bz-Gly-Gly-Gly-Cys-Ala.amide (Bz-GGGCA-NH2; SMILES C[C@H](NC(=O)[C@H](CS)NC(=O)CNC(=O)CNC(=O)CNC(=O)c1ccccc1)C(N)=O) [GGC1, control chelator, no stabilizing sidechain]
[1]
  % Peptide Complexed to ^99mTc Initial: 98.2% and 98.8% and 96.9%
  % Peptide Complexed to ^99mTc 2 h: 83.4% and 83.6% and 85.2%
  % Peptide Complexed to ^99mTc 4 h: 83.5% and 74.0% and 71.7%
  % Peptide Complexed to ^99mTc 6 h: 74.3% and 72.0%
  % Peptide Complexed to ^99mTc 8 h: 69.8% and 68.3% and 61.7%
  % Peptide Complexed to ^99mTc 10 h: 57.9% and 65.0% and 60.0%
  % Peptide Complexed to ^99mTc 12 h: 60.7% and 49.7%
[2]; 1.5 h
  % Peptide Complexed to ^188Re: 80.1%
[2]; 3 h
  % Peptide Complexed to ^188Re: 61.4%
[2]; 4.5 h
  % Peptide Complexed to ^188Re: 50.2%
[2]; 6 h
  % Peptide Complexed to ^188Re: 47.7%
[2]; N1-N2-Cys chelators, Initial
  % Peptide Complexed to ^188Re: 100%

## cyclo-[(N-Me)Phe-Tyr-(D)Trp-Lys-Val-Hcy]-CH2CO.(β)Dap-(D)Orn-Cys-Lys-NH2 [-(β)Dap-(D)Orn-Cys-Lys-NH2]
[3]; ^99mTc labeled NeoTect analogs
  HPLC RCP 0.5 hours: 96.8%
  HPLC RCP 3 hours: 94.1%
  HPLC RCP 6 hours: 91.3%
  HPLC RCP 9 hours: 89.8%
  HPLC RCP 18 hrs.: 81.9%

## cyclo-[(N-Me)Phe-Tyr-(D)Trp-Lys-Val-Hcy]-CH2CO.(β)Dap-Gly-Cys-Lys-NH2 [-(β)Dap-Gly-Cys-Lys-NH2]
[3]; ^99mTc labeled NeoTect analogs
  HPLC RCP 0.5 hours: 92.3%
  HPLC RCP 3 hours: 84.9%
  HPLC RCP 6 hours: 85.6%
  HPLC RCP 9 hours: 81.3%
  HPLC RCP 18 hrs.: 76.0%

## cyclo-[(N-Me)Phe-Tyr-(D)Trp-Lys-Val-Hcy]-CH2CO.(β)Dap-Lys-Cys-Lys-NH2 [-(β)Dap-Lys-Cys-Lys-NH2, reference compound]
[3]; ^99mTc labeled NeoTect analogs
  HPLC RCP 0.5 hours: 93.9%
  HPLC RCP 3 hours: 91.0%
  HPLC RCP 6 hours: 85.2%
  HPLC RCP 9 hours: 81.8%
  HPLC RCP 18 hrs.: 75.7%

## cyclo-[Tyr-(D)Trp-Lys-Thr-Phe-(N-Me)Hcy]-CH2CO.(β)Dap-(α)Dap-Cys-Thr-Ser [—CH2NH2]
[3]; [4]
  HPLC RCP 0.5 hours: 88.5%
[3]; [5]
  HPLC RCP 3 hours: 86.6%
  HPLC RCP 6 hours: 84.1%
  HPLC RCP 9 hours: 82.6%

## cyclo-[Tyr-(D)Trp-Lys-Thr-Phe-(N-Me)Hcy]-CH2CO.(β)Dap-Dab-Cys-Thr-Ser [—CH2CH2NH2]
[3]; [4]
  HPLC RCP 0.5 hours: 94.3%
[3]; [5]
  HPLC RCP 3 hours: 91.6%
  HPLC RCP 6 hours: 90.7%
  HPLC RCP 9 hours: 89.2%

## cyclo-[Tyr-(D)Trp-Lys-Thr-Phe-(N-Me)Hcy]-CH2CO.(β)Dap-Gly-Cys-Thr-Ser [—H]
[3]; [4]
  HPLC RCP 0.5 hours: 89.7%
[3]; [5]
  HPLC RCP 3 hours: 84.8%
  HPLC RCP 6 hours: 83.7%
  HPLC RCP 9 hours: 80.2%

## cyclo-[Tyr-(D)Trp-Lys-Thr-Phe-(N-Me)Hcy]-CH2CO.(β)Dap-Lys-Cys-Thr-Ser [—CH2CH2CH2CH2NH2]
[3]; [4]
  HPLC RCP 0.5 hours: 83.4%
[3]; [5]
  HPLC RCP 3 hours: 83.4%
  HPLC RCP 6 hours: 81.3%
  HPLC RCP 9 hours: 81.0%

## cyclo-[Tyr-(D)Trp-Lys-Thr-Phe-(N-Me)Hcy]-CH2CO.(β)Dap-Met-Cys-Thr-Ser [—CH2CH2SCH3]
[3]; [4]
  HPLC RCP 0.5 hours: 95.0%
[3]; [5]
  HPLC RCP 3 hours: 93.7%
  HPLC RCP 6 hours: 92.5%
  HPLC RCP 9 hours: 92.3%

## cyclo-[Tyr-(D)Trp-Lys-Thr-Phe-(N-Me)Hcy]-CH2CO.(β)Dap-Orn-Cys-Thr-Ser [—CH2CH2CH2NH2]
[3]; [4]
  HPLC RCP 0.5 hours: 97.0%
[3]; [5]
  HPLC RCP 3 hours: 95.2%
  HPLC RCP 6 hours: 94.9%
  HPLC RCP 9 hours: 94.9%
